In US20240156800A1, “EP300 DEGRADER AND USES THEREOF IN NEUROBLASTOMA” (DANA-FARBER CANCER INSTITUTE, INC., priority 2021, published 2024):

Assays:
[1] = molecular target: T1, EP300, CRBN and CBP in Kelly cell lysates (Homo sapiens, UniProt Q09472+Q96SW2); experiment: Biotin-JQAD1 pulldown from Kelly cell lysates (streptavidin purification, western blotting); type: binding; settings: Kelly cell lysates co-treated with excess pomalidomide
T1 construct: added to 500 μg of whole Kelly cell lysate; endogenous in cells; host or cells: Kelly neuroblastoma cells (whole cell lysate)
Procedure: Biotin-JQAD1, synthesized below, was added to 500 μg of whole Kelly cell lysate prepared in immunoprecipitation (IP) lysis buffer (Pierce™ Biotechnology), and incubated for 16 h at 4° C. with end-over-end mixing. One hundred μL of high-capacity streptavidin agarose resin (Pierce™ Biotechnology) was packed into a 1.5 mL Eppendorf tube®, washed three times with cold PBS, prior to addition of cell lysate. Lysate was incubated at room temperature for 10 minutes prior to centrifugation and washing, followed by elution in NuPAGE™ LDS sample buffer with reducing agent (Thermo-Fisher Scientific). Samples were processed by sodium dodecyl sulphate-polyacrylamide gel electrophoresis (SDS-PAGE) as above and blotted using anti-EP300, anti-CRBN, or anti-CBP antibodies.

EP300 [2] = molecular target: T2, EP300 (Mus musculus, UniProt B2RWS6); experiment: Immunohistochemistry of EP300 in liver of Crbn ILE391VAL knockin mice; type: in vivo; settings: 40 mg/Kg IP daily, 14 days
T2 construct: from tissue; host or cells: liver of Balb/c Crbn^ILE391VAL knock-in mice
Procedure: For toxicity studies, four female CD1 mice (Charles River Laboratories) were injected intraperitoneally (IP) with single doses of 10 mg/Kg (R,S)-JQAD1 solubilized in 10% hydroxypropyl β-cyclodextrin (Sigma-Aldrich®) in sterile water. Following injection, blood concentration of (R,S)-JQAD1 was measured by serial measurements of animal serum at time points out to 24 h, by liquid chromatography with tandem mass spectrometry (LC-MS/MS) analysis. Pharmacokinetics were performed at ChemPartner in Shanghai, China, using LC-MS/MS method and pharmacokinetics parameters (Tmax, Cmax, T1/2, AUC, etc.) calculated with WinNonlin® V 6.2 statistics software (Pharsight Corporation) using a noncompartmental model. For maximally tolerated dose (MTD) testing, six female CD1 mice were treated with daily IP doses of (R,S)-JQAD1 at 10, 20, or 40 mg/kg. Animals were monitored for animal weight, grooming and behavior daily without noted effects. […] Animal weights, behavior and grooming were monitored daily, for a total of 21 days. […] Blood samples were obtained by retro-orbital puncture and blood analyzed at the Small Animal Imaging Facility at Beth Israel Deaconess Medical Center (Boston, MA), on a Hemavet® 9500FS (Drew Scientific) for blood counts, creatinine, AST, ALT, ALP, GGTP, and BUN measurements. […]

EP300 [3] = molecular target: T3, EP300 (Homo sapiens, UniProt Q09472); experiment: SILAC mass spectrometry of the nuclear proteome of Kelly cells (EP300); type: cell-based; settings: 500 nM, 24 h, nuclear extract, p=3.3×10^−5
T3 construct: Cells growing in culture were lysed for whole cell lysates; endogenous in cells; host or cells: Kelly, NGP, SIMA, BE2C neuroblastoma cells; Kelly xenografts in NSG mice
Procedure: Because JQAD1 interacted preferentially with both EP300 and CRBN, whether JQAD1 preferentially induces degradation of EP300 compared to CBP in MYCN-amplified neuroblastoma cells was examined. […] To further examine the specificity of JQAD1 for EP300, an analysis of the effects of JQAD1 in stable isotope labeling by amino acids in cell culture (SILAC)-labelled Kelly cells was performed (FIG. 3F). Kelly cells were cultured with SILAC media containing heavy or light-labelled arginine and lysine. Heavy labelled cells were treated with 500 nM JQAD1, and light-labelled cells treated with dimethyl sulfoxide (DMSO) for 24 h, prior to nuclear extraction and protein lysis. […] Protein abundance was then analyzed by mass spectrometry, to determine global changes in the nuclear proteome. […] To expand upon these findings, three NB cell lines, Kelly, NGP and SIMA, which have high levels of CRBN (e.g., protein or mRNA) (FIG. 8C), were treated with JQAD, and the effects on specific proteins were measured by western blotting. […] Peptides were detected, isolated, and fragmented to produce a tandem mass spectrum of specific fragment ions for each peptide. Peptide sequences and protein identity were determined by matching protein databases with the acquired fragmentation pattern by Sequest® (Thermo Fisher Scientific) (Eng et al. J. Am. Soc. Mass Spectrom. 5:976-89 (1994)). […]

T1 sequence (Q09472 2-2414 limits assumed): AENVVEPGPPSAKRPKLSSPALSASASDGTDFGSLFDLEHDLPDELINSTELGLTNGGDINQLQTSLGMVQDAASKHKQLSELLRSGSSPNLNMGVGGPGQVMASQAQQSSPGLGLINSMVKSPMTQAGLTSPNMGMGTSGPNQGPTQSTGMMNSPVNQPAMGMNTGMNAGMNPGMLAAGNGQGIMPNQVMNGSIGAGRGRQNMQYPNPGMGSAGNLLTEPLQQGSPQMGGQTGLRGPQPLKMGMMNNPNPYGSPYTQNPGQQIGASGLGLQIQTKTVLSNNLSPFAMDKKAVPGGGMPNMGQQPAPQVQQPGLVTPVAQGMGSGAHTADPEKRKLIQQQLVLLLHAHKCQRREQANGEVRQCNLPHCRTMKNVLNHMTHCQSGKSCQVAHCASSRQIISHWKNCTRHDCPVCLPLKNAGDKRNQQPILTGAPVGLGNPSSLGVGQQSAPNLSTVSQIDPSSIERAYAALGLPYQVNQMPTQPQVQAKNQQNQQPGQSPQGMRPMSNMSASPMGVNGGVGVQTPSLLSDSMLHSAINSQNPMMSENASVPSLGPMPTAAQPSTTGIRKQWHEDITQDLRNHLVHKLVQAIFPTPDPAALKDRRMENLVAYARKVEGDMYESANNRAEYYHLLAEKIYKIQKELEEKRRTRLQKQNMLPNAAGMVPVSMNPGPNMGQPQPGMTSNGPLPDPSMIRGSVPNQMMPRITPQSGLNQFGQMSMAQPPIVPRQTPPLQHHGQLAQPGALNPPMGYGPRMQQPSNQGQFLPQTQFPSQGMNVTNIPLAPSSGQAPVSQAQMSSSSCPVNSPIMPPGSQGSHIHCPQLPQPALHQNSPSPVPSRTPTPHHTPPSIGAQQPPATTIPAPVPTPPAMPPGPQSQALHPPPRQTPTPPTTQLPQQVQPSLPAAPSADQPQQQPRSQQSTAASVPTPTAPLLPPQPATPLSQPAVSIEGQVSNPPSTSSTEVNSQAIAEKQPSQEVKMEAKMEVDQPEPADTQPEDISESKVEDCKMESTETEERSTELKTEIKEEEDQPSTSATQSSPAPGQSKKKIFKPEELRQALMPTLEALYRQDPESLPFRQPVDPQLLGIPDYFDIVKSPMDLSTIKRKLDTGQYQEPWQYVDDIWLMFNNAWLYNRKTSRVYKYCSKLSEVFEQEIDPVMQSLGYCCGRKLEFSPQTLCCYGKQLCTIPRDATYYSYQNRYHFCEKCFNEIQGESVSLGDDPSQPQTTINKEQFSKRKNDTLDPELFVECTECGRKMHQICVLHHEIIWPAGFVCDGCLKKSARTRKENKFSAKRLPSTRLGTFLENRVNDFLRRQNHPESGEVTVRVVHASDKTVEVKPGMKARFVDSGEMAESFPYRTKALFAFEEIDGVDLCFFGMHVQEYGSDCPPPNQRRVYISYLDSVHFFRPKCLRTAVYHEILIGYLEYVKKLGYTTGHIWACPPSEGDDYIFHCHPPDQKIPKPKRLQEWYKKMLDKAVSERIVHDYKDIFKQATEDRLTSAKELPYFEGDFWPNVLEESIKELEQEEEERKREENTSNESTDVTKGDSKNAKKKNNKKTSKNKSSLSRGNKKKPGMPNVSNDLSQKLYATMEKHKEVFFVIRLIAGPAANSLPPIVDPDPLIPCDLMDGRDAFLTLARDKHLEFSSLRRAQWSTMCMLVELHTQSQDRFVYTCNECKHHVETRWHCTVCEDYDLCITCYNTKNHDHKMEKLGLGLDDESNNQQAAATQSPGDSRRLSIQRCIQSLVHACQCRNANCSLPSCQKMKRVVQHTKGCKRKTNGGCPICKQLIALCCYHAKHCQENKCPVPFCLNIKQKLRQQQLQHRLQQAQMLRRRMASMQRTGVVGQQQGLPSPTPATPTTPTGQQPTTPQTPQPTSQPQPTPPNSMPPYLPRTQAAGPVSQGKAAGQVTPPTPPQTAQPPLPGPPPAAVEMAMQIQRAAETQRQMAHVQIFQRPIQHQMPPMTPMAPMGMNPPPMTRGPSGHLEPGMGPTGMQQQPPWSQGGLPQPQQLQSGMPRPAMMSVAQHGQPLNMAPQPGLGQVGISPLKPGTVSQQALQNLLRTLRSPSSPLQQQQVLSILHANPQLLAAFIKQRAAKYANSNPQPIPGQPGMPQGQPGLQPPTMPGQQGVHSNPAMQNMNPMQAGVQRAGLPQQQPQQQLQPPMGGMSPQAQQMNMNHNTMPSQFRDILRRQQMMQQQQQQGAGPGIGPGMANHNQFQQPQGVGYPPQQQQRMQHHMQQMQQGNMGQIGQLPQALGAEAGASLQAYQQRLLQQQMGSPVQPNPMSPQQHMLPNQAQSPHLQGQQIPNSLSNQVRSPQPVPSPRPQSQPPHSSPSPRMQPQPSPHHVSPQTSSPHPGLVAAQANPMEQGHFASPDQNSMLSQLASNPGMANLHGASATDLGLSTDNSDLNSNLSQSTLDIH
T1 sequence (Q96SW2 whole entry): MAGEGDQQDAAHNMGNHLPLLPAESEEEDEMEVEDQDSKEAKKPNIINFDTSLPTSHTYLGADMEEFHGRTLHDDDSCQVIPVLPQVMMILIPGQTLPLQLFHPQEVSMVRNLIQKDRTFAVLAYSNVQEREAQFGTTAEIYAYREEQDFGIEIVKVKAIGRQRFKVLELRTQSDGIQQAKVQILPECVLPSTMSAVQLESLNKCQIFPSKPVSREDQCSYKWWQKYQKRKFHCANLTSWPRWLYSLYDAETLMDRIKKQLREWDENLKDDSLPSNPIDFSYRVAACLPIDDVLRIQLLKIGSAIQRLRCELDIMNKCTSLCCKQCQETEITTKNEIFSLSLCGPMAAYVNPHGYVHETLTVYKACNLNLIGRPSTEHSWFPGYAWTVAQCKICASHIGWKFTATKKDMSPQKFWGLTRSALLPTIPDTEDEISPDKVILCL
T1 sequence (Q16531 whole entry partner): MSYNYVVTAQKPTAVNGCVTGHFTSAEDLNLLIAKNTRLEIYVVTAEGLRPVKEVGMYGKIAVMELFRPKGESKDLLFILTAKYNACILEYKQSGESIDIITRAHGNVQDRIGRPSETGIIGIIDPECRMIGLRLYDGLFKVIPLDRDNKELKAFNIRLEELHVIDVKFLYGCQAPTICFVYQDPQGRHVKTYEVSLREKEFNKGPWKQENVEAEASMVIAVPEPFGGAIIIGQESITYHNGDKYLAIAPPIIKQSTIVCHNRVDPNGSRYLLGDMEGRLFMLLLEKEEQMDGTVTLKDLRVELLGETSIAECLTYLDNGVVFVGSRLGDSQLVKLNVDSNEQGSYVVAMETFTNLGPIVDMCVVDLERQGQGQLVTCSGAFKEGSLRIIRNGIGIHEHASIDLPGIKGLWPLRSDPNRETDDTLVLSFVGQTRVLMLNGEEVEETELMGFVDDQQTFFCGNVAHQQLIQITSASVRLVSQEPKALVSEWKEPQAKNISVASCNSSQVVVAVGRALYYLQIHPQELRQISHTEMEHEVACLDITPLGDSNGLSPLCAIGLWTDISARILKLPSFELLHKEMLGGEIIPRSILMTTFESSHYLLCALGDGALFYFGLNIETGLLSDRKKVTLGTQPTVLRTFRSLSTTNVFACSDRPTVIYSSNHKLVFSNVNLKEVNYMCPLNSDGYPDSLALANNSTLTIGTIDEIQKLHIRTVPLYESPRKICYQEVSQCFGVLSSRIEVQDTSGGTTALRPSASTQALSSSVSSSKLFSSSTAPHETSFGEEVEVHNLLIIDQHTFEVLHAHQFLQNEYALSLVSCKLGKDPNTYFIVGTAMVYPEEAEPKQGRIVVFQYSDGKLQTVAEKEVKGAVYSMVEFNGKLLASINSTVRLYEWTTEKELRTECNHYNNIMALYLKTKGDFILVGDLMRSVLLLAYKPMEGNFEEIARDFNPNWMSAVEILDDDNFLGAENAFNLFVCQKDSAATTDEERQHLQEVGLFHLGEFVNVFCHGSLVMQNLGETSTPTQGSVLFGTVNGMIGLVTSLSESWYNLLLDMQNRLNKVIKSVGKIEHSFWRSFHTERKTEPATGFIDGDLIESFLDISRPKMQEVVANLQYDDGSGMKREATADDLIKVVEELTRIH

## C[C@H](N(Cc1ccc(F)cc1)C(=O)CN1C(=O)O[C@@]2(CCc3cc(NC(=O)CCCCCCCCCCCNc4ccc5c(c4)C(=O)N(C4CCC(=O)NC4=O)C5=O)ccc32)C1=O)C(F)(F)F (stereo partly drawn) [JQAD1, 12-((2-(2,6-dioxopiperidin-3-yl)-1,3-dioxoisoindolin-5-yl)amino)-N-((R)-3′-(2-((4-fluorobenzyl)((S)-1,1,1-trifluoropropan-2-yl)amino)-2-oxoethyl)-2′,4′-dioxo-2,3-dihydrospiro[indene-1,5′-oxazolidin]-5-yl)dodecanamide]
[1]
  effect of excess pomalidomide on the interaction: partial loss of the interaction between JQAD1, CRBN, and EP300
EP300 [2]
  EP300 protein expression in liver: reduced EP300 protein expression levels in the liver cell nuclei
EP300 [3]
  EP300 protein abundance: significantly decreased
